pEC50: −log10 of the molar value.
Tests used:
liver cells = assay: Determination of the in vitro clearance in liver cells; type: in vitro ADME; settings: for clearance values reduced compared to clearance values of examples P1, P2 and P55: in vitro clearance, relative to reference compounds; for Clearance: in vitro intrinsic clearance, liver cells (hepatocyte cultures), 37° C.
Protocol: Determination of the In Vitro Clearance
Incubations of a test compound at different concentrations were performed in 96 well plates containing liver cells (5% CO2 atmosphere and 37° C.). At defined time points, either cell medium was taken or the whole well was quenched with acetonitrile containing an internal standard. Samples are then cooled and centrifuged before analysis by LC-MS/MS. Different enzyme markers (Cyp3A4 substrates Midazolam, Quinidin, CYP2B6 Buproprion, CYP2D6 Dextromethorphan, CYP2C9 Tolbutamide, FMO substrate Benzydamine, UGT substrate Raloxifene) for assessing the metabolic activity of the hepatocyte cultures were used as quality control.
Log peak area ratios (test compound peak area/internal standard peak area) or concentrations were plotted against incubation time and a linear fit made to the data with emphasis upon the initial rate of compound disappearance. The slope of the fit is then used to calculate the intrinsic clearance:
Additionally, the intrinsic clearance can also be deduced by the measured rates of metabolite formation.

human M4 receptor [1] = molecular target: T1, human M4 receptor (Homo sapiens, UniProt P08173); assay: cAMP assay for M4 positive allosteric modulators (M4 PAM cAMP assay); type: cell-based; design: expressed in transfected cells; host or cells: CHO-K1; settings: CHO-K1 cells expressing human M4, forskolin 7.5 μM + acetylcholine EC20 (0.2 nM)
T1 sequence (P08173 1-479): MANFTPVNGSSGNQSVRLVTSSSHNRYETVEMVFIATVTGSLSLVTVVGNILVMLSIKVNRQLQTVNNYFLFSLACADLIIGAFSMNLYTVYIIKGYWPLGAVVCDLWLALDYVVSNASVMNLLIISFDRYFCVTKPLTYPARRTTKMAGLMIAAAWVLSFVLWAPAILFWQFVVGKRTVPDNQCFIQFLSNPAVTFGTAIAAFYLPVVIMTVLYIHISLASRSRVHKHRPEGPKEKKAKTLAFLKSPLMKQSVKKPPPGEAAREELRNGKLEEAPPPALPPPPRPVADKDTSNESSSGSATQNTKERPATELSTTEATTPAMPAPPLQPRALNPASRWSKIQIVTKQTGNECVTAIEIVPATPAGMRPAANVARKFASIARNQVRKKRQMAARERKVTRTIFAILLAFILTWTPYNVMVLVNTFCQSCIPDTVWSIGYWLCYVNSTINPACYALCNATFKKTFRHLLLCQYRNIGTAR
Method in brief: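 CHO-K1 cells stably expressing untagged human M4 pre-treated 15 min at 37 °C with compound plus IBMX, then stimulated 30 min with 7.5 μM forskolin and EC20 acetylcholine (0.2 nM). cAMP read by TR-FRET; normalised to 2 nM acetylcholine plus forskolin as 100%, sigmoidal fit giving EC50 and % efficacy.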

human M4 receptor [2] = molecular target: T1, human M4 receptor; assay: Calcium flux assay using fluorescent imaging (M4 PAM FLIPR assay); type: cell-based; design: expressed in transfected cells; host or cells: CHO (monoclonal line, clone 2); settings: CHO cells expressing human M4+Gqi5, acetylcholine EC20
Method in brief: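 CHO cells stably expressing human M4 with Gqi5 were loaded with 2 μM Fluo-4-AM for about 90 min at 37 °C, in HBSS/20 mM HEPES pH 7.3/2.5 mM probenecid. For PAM mode, compound was pre-incubated 15 min before an EC20 acetylcholine challenge; calcium read on FDSS 7000. EC50 and efficacy are relative to 3 μM acetylcholine (EC100), four-parameter fit.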

muscarinic receptors = settings: 345 Alzheimer patients; cited from earlier work
M4 receptor = molecular target: T2, M4 receptor (Mus musculus, UniProt P32211); settings: rodent in vivo; effects absent in M4 knockout mice; cited from earlier work
T2 construct: host or cells: living mice (behavioural test)
T2 sequence (P32211 1-479): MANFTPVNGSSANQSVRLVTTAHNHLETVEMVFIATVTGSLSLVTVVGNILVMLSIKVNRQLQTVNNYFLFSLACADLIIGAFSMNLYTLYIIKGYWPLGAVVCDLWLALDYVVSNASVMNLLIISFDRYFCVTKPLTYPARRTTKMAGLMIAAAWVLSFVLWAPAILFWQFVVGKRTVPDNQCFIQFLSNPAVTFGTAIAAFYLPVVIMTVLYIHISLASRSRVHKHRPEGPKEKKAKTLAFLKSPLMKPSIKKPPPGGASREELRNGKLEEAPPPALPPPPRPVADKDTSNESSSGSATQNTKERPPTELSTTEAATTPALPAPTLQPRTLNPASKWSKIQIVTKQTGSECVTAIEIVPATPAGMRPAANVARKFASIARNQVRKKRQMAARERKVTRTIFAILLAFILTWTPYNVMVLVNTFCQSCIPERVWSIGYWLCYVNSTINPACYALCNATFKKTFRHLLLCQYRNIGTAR

Row | clearance values reduced compared to clearance values of examples P1, P2 and P55 (liver cells) | Clearance (liver cells) | pEC50 (human M4 receptor [1]; Table 1) | pEC50 (human M4 receptor [2]; Table 1) | pEC50 (human M4 receptor [2]; Table 2) | SMILES | also measured
1 | 50% | 9.3 μl/min/1 * 10^6 cells | 6.81 | 6.41 |  | Cc1nc2c(c(C)c1Cl)CN(C(=O)[C@@H]1CCN(c3cccnc3)C1)C2 [Example 1, (3-chloro-2,4-dimethyl-5,7-dihydropyrrolo[3,4-b]pyridin-6-yl)-[(3R)-1-(3-pyridyl)pyrrolidin-3-yl]methanone] | 
2 |  |  |  |  |  | CCCCCCOc1nsnc1C1=CCCN(C)C1 [Xanomeline] | effect on cognition and psychiatric symptoms (muscarinic receptors): improve cognition and psychiatric symptoms
3 |  | 7.9 μl/min/1 * 10^6 cells |  |  | 7.46 | Cc1nc2c(c(C)c1Cl)CN(C(=O)CC1CN(c3ccncn3)C1)C2 [Example P2, reference compound] | pEC50 (human M4 receptor [1]; Table 2): 7.28
4 |  | 20 μl/min/1 * 10^6 cells |  |  | 6.02 | Cc1nc2c(c(C)c1Cl)CN(C(=O)CC1CN(c3cccnc3)C1)C2 [Example P1, reference compound] | pEC50 (human M4 receptor [1]; Table 2): 7.26
5 |  |  |  |  |  | Cc1nnc2sc(C(=O)NCc3ccc(S(=O)(=O)C(F)(F)F)cc3)c(N)c2c1C [VU0467154] | effect on associative learning impairments induced by MK-801 (M4 receptor): ameliorated the associative learning impairments
6 | 50% | 3.5 μl/min/1 * 10^6 cells | 7.10 | 7.21 |  | Cc1nc2c(c(C)c1Cl)CN(C(=O)[C@@H]1CCN(c3ccncn3)C1)C2 [Example 2, (3-chloro-2,4-dimethyl-5,7-dihydropyrrolo[3,4-b]pyridin-6-yl)-[(3R)-1-pyrimidin-4-ylpyrrolidin-3-yl]methanone] | 
7 |  | 5.1 μl/min/1 * 10^6 cells |  |  | 7.30 | COCc1nc2c(c(C)c1Cl)CN(C(=O)CC1CN(c3ccncn3)C1)C2 [Example P55, 1-[3-chloro-2-(methoxymethyl)-4-methyl-5,7-dihydropyrrolo[3,4-b]pyridin-6-yl]-2-(1-pyrimidin-4-ylazetidin-3-yl)ethanone, reference compound] | 
8 |  |  | 6.23 | 6.44 |  | Cc1cncc(N2CC[C@@H](C(=O)N3Cc4nc(C)c(Cl)c(C)c4C3)C2)n1 [Example 51, (3-chloro-2,4-dimethyl-5,7-dihydropyrrolo[3,4-b]pyridin-6-yl)-[(3R)-1-(6-methylpyrazin-2-yl)pyrrolidin-3-yl]methanone] | 
9 |  |  | 6.35 | 6.61 |  | Cc1nc2c(c(C)c1Cl)CN(C(=O)[C@@H]1CCN(c3cc(C(F)F)ncn3)C1)C2 [Example 54, (3-chloro-2,4-dimethyl-5,7-dihydropyrrolo[3,4-b]pyridin-6-yl)-[(3R)-1-[6-(difluoromethyl)pyrimidin-4-yl]pyrrolidin-3-yl]methanone] | 
10 | 50% | 2.1 μl/min/1 * 10^6 cells | 6.72 | 7.38 |  | COCc1nc2c(c(C)c1Cl)CN(C(=O)[C@@H]1CCN(c3ccncn3)C1)C2 [Example 55, [3-chloro-2-(methoxymethyl)-4-methyl-5,7-dihydropyrrolo[3,4-b]pyridin-6-yl]-[(3R)-1-pyrimidin-4-ylpyrrolidin-3-yl]methanone] | 

— US20220289746A1, “PYRROLIDINE DERIVATIVES” (Hoffmann-La Roche Inc., priority 2019, published 2022)
